Molecular target: Poly [ADP-ribose] polymerase 2 (Homo sapiens, UniProt Q9UGN5)
Test: Inhibition of N-terminal 6His-tagged full-length recombinant human PARP2 by fluorescence anisotropy assay

Chain of Poly [ADP-ribose] polymerase 2 (Q9UGN5 whole entry): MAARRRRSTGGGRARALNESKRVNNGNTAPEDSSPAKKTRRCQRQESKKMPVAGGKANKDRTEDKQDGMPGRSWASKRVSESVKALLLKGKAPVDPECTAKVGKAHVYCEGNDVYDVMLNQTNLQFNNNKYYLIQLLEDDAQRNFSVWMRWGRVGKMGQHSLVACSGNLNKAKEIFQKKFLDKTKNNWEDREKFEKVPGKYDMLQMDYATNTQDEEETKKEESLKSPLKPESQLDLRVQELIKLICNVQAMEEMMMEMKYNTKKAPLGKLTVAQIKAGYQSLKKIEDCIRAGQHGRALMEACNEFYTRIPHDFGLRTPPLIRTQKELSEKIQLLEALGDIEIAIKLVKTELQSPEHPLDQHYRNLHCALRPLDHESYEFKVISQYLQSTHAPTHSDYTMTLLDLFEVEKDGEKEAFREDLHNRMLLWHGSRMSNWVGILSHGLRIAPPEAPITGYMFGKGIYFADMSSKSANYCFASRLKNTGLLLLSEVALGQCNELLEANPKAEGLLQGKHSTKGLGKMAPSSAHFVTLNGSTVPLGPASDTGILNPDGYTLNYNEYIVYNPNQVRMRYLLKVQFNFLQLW

With `CNC(=O)c1ccc(N2CCN(Cc3ccc4nc(C)c(=O)[nH]c4c3F)CC2)c(C)n1` [5-[4-[(5-fluoro-2-methyl-3-oxo-4H-quinoxalin-6-yl)methyl]piperazin-1-yl]-N,6-dimethyl-pyridine-2-carboxamide] the IC50 was greater than 100 µM.

From BindingDB's records for PubMed 39655996 (AstraZeneca)
